Like-named read-outs stand apart in the source and are kept apart here.
Columns and labels:
[1] = target: T1, α-Glucosidase type 1 from baker's yeast (Saccharomyces cerevisiae, UniProt P53341); assay: biochemical; conditions: mean ± SD, triplicate, tested at 1, 5, 10, 25, 50 µM
T1 construct: purchased Sigma Aldrich (Pty) Ltd. G5003
Experimental: The assay was conducted in triplicate following a method described in our previous study. […] After pre-incubation, 17 µL of 2 mM PNP-G was added. The absorbances were recorded in a 96-well microplate at 400 nm using an Elisa plate reader (Varioskan Flash, ThermoFischer Scientific, Vantaa, Finland). The average values obtained from the readings were used to determine the IC50 and standard deviation values using a GraphPad Prism software (Version 8, GraphPad Software Inc., San Diego, CA, USA). The average values obtained from the absorbance readings were used to determine the IC50 and standard deviation values in GraphPad prism from nonlinear regression dose–response curves.

[2] = target: T2, human α-amylase (Homo sapiens, UniProt P04746); assay: α-amylase inhibitor screening kit assay; type: biochemical; conditions: mean ± SD, triplicate; tested at 1, 5, 10, 25, 50 µM
T2 construct: purchased Abcam ab283391
T2 sequence (P04746 16-511): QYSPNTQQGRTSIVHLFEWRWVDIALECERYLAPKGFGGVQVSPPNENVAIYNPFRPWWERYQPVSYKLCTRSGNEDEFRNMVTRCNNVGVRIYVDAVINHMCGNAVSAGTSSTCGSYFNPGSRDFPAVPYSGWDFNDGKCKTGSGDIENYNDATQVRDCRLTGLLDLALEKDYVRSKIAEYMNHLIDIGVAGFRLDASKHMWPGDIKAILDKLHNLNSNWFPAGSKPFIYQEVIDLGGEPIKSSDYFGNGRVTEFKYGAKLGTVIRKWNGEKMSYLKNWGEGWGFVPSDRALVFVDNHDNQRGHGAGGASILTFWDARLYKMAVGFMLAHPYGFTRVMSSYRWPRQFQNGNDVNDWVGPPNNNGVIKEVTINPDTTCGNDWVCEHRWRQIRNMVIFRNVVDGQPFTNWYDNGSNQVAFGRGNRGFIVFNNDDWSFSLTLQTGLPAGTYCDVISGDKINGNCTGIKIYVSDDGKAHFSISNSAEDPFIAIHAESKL
Experimental: The α-amylase assay was performed in triplicate, using a 96-well plate following the procedure recommended by the manufacturer as outlined in the α-amylase inhibitor Screening Kit (Catalogue No. ab283391; Abcam). […] The average values obtained from the absorbance readings were used to determine the IC50 and standard deviation values in GraphPad prism from nonlinear regression dose–response curves.

[3] = DPPH radical scavenging assay; conditions: mean ± SD; 45 min in the dark; 512 nm
Experimental: The DPPH radical scavenging assay was conducted following the procedure described in our previous study. The test compounds and ascorbic acid at various concentrations (ranging from 0 µM to 50 µM) in DMSO were mixed with a solution of DPPH (0.20 mM) in methanol and incubated in the dark for 45 min. Five absorbance readings were recorded at 512 nm using an Elisa plate reader (Varioskan Flash, ThermoFisher Scientific, Vantaa, Finland). The experiment was carried out in triplicate, and averaged values from the absorbance readings were used to determine the IC50 and standard deviation values in GraphPad prism from nonlinear regression dose–response curves.

[4] = NO free radical scavenging assay (sodium nitroprusside/Griess); conditions: mean ± SD; sodium nitroprusside, Griess reagent, 550 nm
Experimental: The assay was conducted following the method described in our previous study. A mixture of 10 mM sodium nitroprusside (20 µL), phosphate buffer (5 µL) and the test compound (5 µL) were incubated at 25 °C in a 96-well plate for 2.5 h. After incubation, 20 µL of Griess reagent (1.00 g of sulfanilic acid + 0.10 g naphthylethylene diamine dihydrochloride) was added to the previous mixture and allowed to stand for 30 min. […] Each experiment was performed in triplicate, and the average was taken. The average obtained from the absorbance readings was used to calculate the IC50 values in GraphPad prism from nonlinear regression dose–response curves.

[5] = test system: lung cancer (A549) cell line; assay: MTT cytotoxicity assay, A549; conditions: for Cell viability percentage, A549: Table S3
Experimental: (§1) Cells were cultured in sterile Dulbecco’s Minimal Essential Medium (DMEM, Gibco) supplemented with 10% fetal bovine serum (FBS) and 1% penicillin-streptomycin solution. […] Cell counting was carried out using a handheld automated cell counter (Scapter 3.0™, Merck, Burlington, MA, USA) and seeded (1 × 10^4 cells/well) into a 96-well plate. After 24 h, the cells were treated with different concentrations (1, 5, 10, 25 and 50 µM) of the test compounds and reference standards prepared in DMEM. The MTT solution (20 μL) prepared in PBS (5 mg/mL) was added to all the wells, and the plates were incubated for 4 h, followed by 1 h incubation with 100 µL of dimethyl sulfoxide (DMSO) to dissolve the formazan crystals. Untreated cells and 5% DMSO were included in the experiment as negative controls. All experiments were performed in triplicate. The plates were read at 570 nm at a reference wavelength of 630 nm using an ELISA plate reader (Varioskan Flash, ThermoFisher Scientific, Vantaa, Finland). The percentage of cell viability was calculated using the following formula, Cell viability %=At/Ab×100 where At represents the absorbance value of test compound and Ab the absorbance value of the blank. […] The data were expressed as means ± SD.

[6] = test system: breast cancer (MCF-7) cell line; assay: MTT cytotoxicity assay, MCF-7; conditions: for Cell viability percentage, MCF-7: Table S2
[7] = test system: human embryonic kidney (HEK293-T) cell line; assay: MTT cytotoxicity assay, HEK293-T; conditions: for Cell viability percentage, HEK293-T: Table S4; for IC50: read-out: IC50 Hek293-T
Experimental: as §1

[8] = MTT cytotoxicity assay, HEK293-T; conditions: human, HEK293-T cells
Experimental: as §1

[9] = Homo sapiens, A549, read-out: IC50 A549
[10] = Homo sapiens, MCF7, read-out: IC50 MCF-7

T1 sequence (P53341 whole entry): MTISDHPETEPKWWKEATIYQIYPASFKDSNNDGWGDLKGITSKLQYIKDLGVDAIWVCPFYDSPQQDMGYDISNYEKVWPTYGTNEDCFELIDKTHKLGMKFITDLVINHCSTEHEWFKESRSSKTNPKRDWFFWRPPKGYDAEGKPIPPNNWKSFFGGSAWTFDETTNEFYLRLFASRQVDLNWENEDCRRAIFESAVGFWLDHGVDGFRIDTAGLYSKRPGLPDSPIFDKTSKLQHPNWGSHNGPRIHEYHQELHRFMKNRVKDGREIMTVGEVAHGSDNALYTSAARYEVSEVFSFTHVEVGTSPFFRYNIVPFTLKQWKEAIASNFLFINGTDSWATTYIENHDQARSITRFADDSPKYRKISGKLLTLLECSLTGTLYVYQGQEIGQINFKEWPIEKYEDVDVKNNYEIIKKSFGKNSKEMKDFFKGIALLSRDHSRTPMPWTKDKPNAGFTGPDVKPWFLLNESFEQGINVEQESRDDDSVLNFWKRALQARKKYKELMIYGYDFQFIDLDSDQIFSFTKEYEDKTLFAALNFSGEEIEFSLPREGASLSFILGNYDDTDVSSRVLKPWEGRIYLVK

Row | SMILES | IC50 [2] [µM] | IC50 [3] [µM] | IC50 [4] [µM] | Cell viability percentage, A549 ([5]; Conc. 1 (µM per method)) | Cell viability percentage, A549 ([5]; Conc. 5 (µM per method)) | Cell viability percentage, A549 ([5]; Conc. 10 (µM per method)) | Cell viability percentage, A549 ([5]; Conc. 25 (µM per method)) | Cell viability percentage, A549 ([5]; Conc. 50 (µM per method)) | Cell viability percentage, MCF-7 ([6]; Conc. 1 (µM per method)) | Cell viability percentage, MCF-7 ([6]; Conc. 5 (µM per method)) | Cell viability percentage, MCF-7 ([6]; Conc. 10 (µM per method)) | Cell viability percentage, MCF-7 ([6]; Conc. 25 (µM per method)) | Cell viability percentage, MCF-7 ([6]; Conc. 50 (µM per method)) | IC50 [5, 9] [µM] | IC50 [6, 10] [µM] | viability at 1 µM [8] [%] | viability at 5 µM [8] [%] | viability at 10 µM [8] [%] | viability at 25 µM [8] [%] | IC50 ([7]; Homo sapiens, HEK-293T) [µM] | also measured
1 | CC1=[N+]([O-])C(c2ccc(Cl)cc2)Nc2ccc(I)cc21 (racemic) [Compound 3g] | 53.42 ± 0.01 | 26.88 ± 0.043 | 4.25 ± 0.005 | 72,7416% | 56,2268% | 50,6131% | 43,0757% | 33,0296% | 42,0991% | 37,841% | 36,5769% | 35,8117% | 33,9155% | – | – | – | – | – | – | – | IC50 ([1]; read-out: IC50 α-Glucosidase): 15.08 ± 0.08 µM; IC50 ([5]; read-out: IC50 A549, MTT, mean ± SD, triplicate, 1-50 µM): 18.63 ± 0.11 µM; IC50 ([6]; read-out: IC50 MCF-7, MTT, mean ± SD, triplicate, 1-50 µM): 10.38 ± 0.08 µM; Cell viability percentage, HEK293-T ([7]; Conc. 1 (µM per method)): 63,41%; Cell viability percentage, HEK293-T ([7]; Conc. 5 (µM per method)): 46,5251%; Cell viability percentage, HEK293-T ([7]; Conc. 10 (µM per method)): 41,062%; Cell viability percentage, HEK293-T ([7]; Conc. 25 (µM per method)): 31,41%; Cell viability percentage, HEK293-T ([7]; Conc. 50 (µM per method)): 17,0502%; IC50 ([7]; MTT, normal cell line, mean ± SD, triplicate, 1-50 µM): 21.7 ± 0.13 µM
2 | CC1=[N+]([O-])C(c2ccc(F)cc2)Nc2ccc(Br)cc21 (stereo not drawn) [Compound 3b] | 36.35 ± 0.01 | 1.07 ± 0.048 | 15.1 ± 0.029 | 69,0066% | 60,8505% | 56,1818% | 42,7495% | 28,8446% | 39,7538% | 38,34% | 35,1963% | 33,8157% | 30,3061% | 19.31 ± 0.08 | 12.8 ± 0.07 | 41.6 | 41.3 | 40.3 | 38.5 | 41.72 ± 0.04 | IC50 ([1]; IC50 α-Glucosidase): 7.47 ± 0.05 µM; melting point: 183 to 185 °C; viability at 50 µM [8]: 35.8%
3 | COc1ccc(C2Nc3ccc(Br)cc3C(C)=[N+]2[O-])cc1 (stereo not drawn) [Compound 3d] | 54.08 ± 0.03 | 9.55 ± 0.006 | 24.42 ± 0.004 | – | – | – | – | – | 47,0559% | 46,8729% | 44,0286% | 43,2136% | 38,6394% | 13.45 ± 0.03 | 13.68 ± 0.09 | 75.1 | 60.1 | 54.1 | 30.6 | 37.53 ± 0.18 | IC50 ([1]; IC50 α-Glucosidase): 68.2 ± 0.01 µM; melting point: 194 to 196 °C; viability at 50 µM [8]: 17.6%
4 | CC1=[N+]([O-])C(c2ccccc2)Nc2ccc(I)cc21 (stereo not drawn) [Compound 3e] | 49.5 ± 0.06 | 1.1 ± 0.031 | 52.38 ± 0.003 | 74,9578% | 64,338% | 52,0419% | 40,2408% | 30,3184% | 27,8443% | 22,0559% | 23,6194% | 19,7272% | 17,2488% | 11.4 ± 0.12 | 15.83 ± 0.14 | 69.7 | 60 | 40 | 31.9 | 20.12 ± 0.06 | IC50 ([1]; IC50 α-Glucosidase): 6.04 ± 0.01 µM; melting point: 184 to 186 °C; viability at 50 µM [8]: 20%
5 | CC1=[N+]([O-])C(c2ccc(Cl)cc2)Nc2c(I)cc(Br)cc21 (stereo not drawn) [Compound 3k] | 4.46 ± 0.02 | 4.08 ± 0.038 | 15 ± 0.005 | 78,5578% | 73,6416% | 60,0068% | 42,682% | 32,6808% | 42,1823% | 41,6001% | 39,6041% | 38,7891% | 38,1737% | 15.37 ± 0.13 | 16.65 ± 0.05 | 61.3 | 55.4 | 42.5 | 31.6 | 21.04 ± 0.05 | IC50 ([1]; read-out: IC50 α-Glucosidase): 13.47 ± 0.04 µM; viability at 50 µM [8]: 24%
6 | COc1cccc2c1C(=O)c1c(O)c3c(c(O)c1C2=O)C[C@@](O)(C(=O)CO)C[C@@H]3O[C@H]1C[C@H](N)[C@H](O)[C@H](C)O1 [Doxorubicin, doxorubicin, reference compound] | – | – | – | – | – | – | – | – | – | – | – | – | – | 0.36 ± 0.07 | 0.25 ± 0.05 | – | – | – | – | 0.87 ± 0.04 | –
